Laboratory results: article PMC12299890 (Pharmaceuticals, 2025)
Like-named read-outs stand apart in the source and are kept apart here.

Assay: Serum concentration and pharmacokinetics of SCI after oral gavage in Wistar rats
Format: in vivo, Wistar rat
Details: for AUC(0-t) / Cmax / Tmax / k el / MRT / half-life: male, Wistar, rat, po, 10 mg/kg; for k el: read-out: K (elimination rate constant) (converted); for MRT: read-out: MRT (mean residence time); for half-life: read-out: T0.5e (elimination half-life) (converted)
Description: All procedures were performed according to the Local Ethical Committee of Experiments on Animals guidelines in Olsztyn, Poland. The experiment was conducted in the same way as described by Antonowski et al.. Briefly, the experiment was performed on male Wistar rats (n = 6). Rats were maintained in ventilated rooms under a standard day photoperiod (12:12 h light–dark) as well as with lights on from 700 to 1900 h at 21 °C. All rats had free access to food and water. At 42 days of age, rats were randomized into experimental groups (Table 1 and Table 4).
Before the administration of cyclitol (10 mg/kg), the rats were fasting for 12 h (Table 1). […] Access to water was unlimited during the experiments. The study group (n = 6) was divided into two subgroups (n = 3 rats per subgroup). This practice allows for the use of only 6 rats for the entire experiment in accordance with the 3 Rs principle. Rats received the compound at a dose of 10 mg/kg body weight. Rats were weighed before starting the compound administration. Cyclitol was administered to the rats from the study group using a stainless-steel gastric tube with a ball tip (manufacturer—Agnthos, curved gastric tube, 16G, 3 mm tip, 75 mm). Cyclitol was dissolved in distilled water to a maximum volume of 1 mL. The prepared solution was administered to the animal.
Blood samples were collected into Eppendorf tubes and were centrifuged at 2500× g for 10 min at 8 °C the following day. Blood was harvested from the tail at a specific time. […] Serum was stored at −80 °C for subsequent analyses.
The analysis is described in detail by Antonowski and co-workers. Briefly, the first step was to remove the protein, then concentrate the sample in a speed vacuum evaporator to dryness. Next, samples were analyzed using the high-resolution gas chromatography method. We used a gas chromatograph GC2010Plus (Shimadzu, Tokyo, Japan) with a capillary column ZEBRON ZB-1 (15 m length, 0.25 mm diameter, and 0.1 μm film thickness, Phenomenex, Torrance, CA, USA). Helium was used as a carrier gas (at a flow rate of 1.18 mL min^−1). […] Finally, scyllo-inositol was quantified by using a standard.
The PK parameters were calculated using PK Solver. PKSolver is an add-in program for pharmacokinetic and pharmacodynamic data analysis […]. […] The area under the drug concentration–time curve from time zero to the time of the last quantifiable concentration (AUClast) was calculated using the trapezoidal rule. The volume over which the drug was distributed (Vd) and clearance (CL) were conducted by PK Solver. […] Nevertheless, we estimated K by log-linear regression analysis on data points on the terminal log-linear phase. Noncompartmental analysis is generally the preferred methodology to use in that it requires fewer assumptions than model-based approaches. We presented the results for individual rats, subgroups of rats, and for all subjects studied. The content of scyllo-inositol was calculated from the standard curves of appropriate components. To determine the terminal phase, […] was sufficient.
An analysis of all parameters was carried out with GraphPad Prism software (Version 10 Graph Pad Software Inc., La Jolla, CA, USA). Data are expressed as means ± SEM or individual data. Briefly, AUClast was calculated using the trapezoidal method. The T0.5 of oral administration was calculated as 0.693/K.

[1] = serum, Mean of rats 1–3 ± SEM, oral 10 mg/kg
[2] = serum, Mean of rats 1–3 ± SEM, serum, oral 10 mg/kg
[3] = serum, Mean of rats 4–6 ± SEM, oral 10 mg/kg
[4] = serum, Mean of rats 4–6 ± SEM, serum, oral 10 mg/kg
[5] = serum, Rat No 1, serum, oral 10 mg/kg
[6] = serum, Rat No 2, serum, oral 10 mg/kg
[7] = serum, Rat No 3, serum, oral 10 mg/kg
[8] = serum, Rat No 4, serum, oral 10 mg/kg
[9] = serum, Rat No 5, serum, oral 10 mg/kg
[10] = serum, Rat No 6, serum, oral 10 mg/kg
[11] = serum, mean serum profile of six rats, oral 3.92 mg SCI (10 mg/kg)
[12] = mean serum profile of six rats, oral 3.92 mg SCI (10 mg/kg)

**Q.** What does the source list for `O[C@H]1[C@H](O)[C@@H](O)[C@H](O)[C@@H](O)[C@@H]1O` [SCI, scyllo-inositol]?
**A.** AUC(0-t) [1]: 36400 ± 3390 ng·h/mL; Cmax [1]: 6730 ± 291 ng/mL; Tmax [1]: 1.33 ± 0.167 h; k el [2]: 0.000237 s⁻¹; MRT [2]: 36.2 ± 20.7 h; half-life [2]: 25.1 ± 14.3 h; AUC(0-t) [3]: 19800 ± 4260 ng·h/mL; Cmax [3]: 4900 ± 874 ng/mL; Tmax [3]: 2.67 ± 0.667 h; k el [4]: 0.000126 s⁻¹; MRT [4]: 3.6 ± 1.48 h; half-life [4]: 2.5 ± 1.02 h; AUC(0-t) (serum, Rat No 1, oral 10 mg/kg): 40800 ng·h/mL; Cmax (serum, Rat No 1, oral 10 mg/kg): 7200 ng/mL; Tmax (serum, Rat No 1, oral 10 mg/kg): 1.5 h; k el [5]: 0.0007 s⁻¹; MRT [5]: 0.397 h; half-life [5]: 0.275 h; AUC(0-t) (serum, Rat No 2, oral 10 mg/kg): 38600 ng·h/mL; Cmax (serum, Rat No 2, oral 10 mg/kg): 6200 ng/mL; Tmax (serum, Rat No 2, oral 10 mg/kg): 1.5 h; k el [6]: 3.85e-06 s⁻¹; MRT [6]: 72.1 h; half-life [6]: 50 h; AUC(0-t) (serum, Rat No 3, oral 10 mg/kg): 29700 ng·h/mL; Cmax (serum, Rat No 3, oral 10 mg/kg): 6800 ng/mL; Tmax (serum, Rat No 3, oral 10 mg/kg): 1 h; k el [7]: 7.67e-06 s⁻¹; MRT [7]: 36.3 h; half-life [7]: 25.1 h; AUC(0-t) (serum, Rat No 4, oral 10 mg/kg): 11400 ng·h/mL; Cmax (serum, Rat No 4, oral 10 mg/kg): 3200 ng/mL; Tmax (serum, Rat No 4, oral 10 mg/kg): 2 h; k el [8]: 0.000253 s⁻¹; MRT [8]: 1.1 h; half-life [8]: 0.761 h; AUC(0-t) (serum, Rat No 5, oral 10 mg/kg): 25300 ng·h/mL; Cmax (serum, Rat No 5, oral 10 mg/kg): 6100 ng/mL; Tmax (serum, Rat No 5, oral 10 mg/kg): 4 h; k el [9]: 4.47e-05 s⁻¹; MRT [9]: 6.21 h; half-life [9]: 4.31 h; AUC(0-t) (serum, Rat No 6, oral 10 mg/kg): 22600 ng·h/mL; Cmax (serum, Rat No 6, oral 10 mg/kg): 5400 ng/mL; Tmax (serum, Rat No 6, oral 10 mg/kg): 2 h; k el [10]: 7.95e-05 s⁻¹; MRT [10]: 3.5 h; half-life [10]: 2.42 h; AUC(0-t) [11]: 23500 ng·h/mL; Cmax [11]: 5930 ng/mL; Tmax [11]: ~1.5 h; k el [11]: 1.91e-05 s⁻¹; MRT [11]: 14.5 h; half-life [11]: 10.1 h; CL [12]: 0.167 L/h; Vd [12]: 2.43 L; Side effects of SCI supplementation noticed during the study (oral 10 mg/kg, up to 48 h): no side effects; Time of highest average serum concentration (rats no. 1–3 (sampled 0–1.5, 12, 24 h), oral 10 mg/kg): 1.5 h; Time of highest average serum concentration (rats no. 4–6 (sampled 2–48 h), oral 10 mg/kg): 2 h; Time of first measurement of SCI concentration greater than 0 mg/L (serum, after oral 10 mg/kg): 30 min
